Experimental data published in US11160277B2, “Use of cholinium lysinate as an herbicide” (priority 2019, dated 2021).
Entries after “also recorded” stand apart in the source; their conditions may differ.

What was measured:
Arabidopsis thaliana = experiment: Arabidopsis seedling root architecture screen on vertical agar plates; format: in vivo; details: for lateral root initiation (effect of treatment) / primary root growth (effect of treatment): 6 days of treatment, concentrations tested
Description: An initial dose-responded for Arabidopsis seeding growth across multiple orders of magnitude in concentration is developed, and then examined sub-lethal concentrations in greater detail. Plants are germinated and grown vertically on transparent agar plates until the emergence of the first set of true leaves (6-8 days), transferred to fresh plates with or without the compound of interest, and imaged at 0 and 6 days after transfer. Finally, a semi-automated image analysis method is used to score primary root growth and total lateral root number, common phenotypes in plant developmental biology (Lobet, Pagès, and Draye 2011).
Arabidopsis ecotype Col-0 seeds are obtained from the Arabidopsis Biological Resource Center (ABRC). Seeds are surface sterilized by a brief wash in 70% (v/v) ethanol followed by incubation in 30% (v/v) sodium hypochlorite (commercial bleach) for 15 minutes. Seeds are subsequently rinsed 5 times in sterile water, and sown on ½ Murashige and Skoog (MS) agar. Seeds are stratified (2 days, 4° C. in the dark) before transfer to a growth chamber under a 10 h light:14 h dark (22° C.). Following germination, plants are grown until the appearance of the first set of true leaves (˜6 days) prior to transfer to fresh test or control agar. […] The change in root length is determined from the primary root length at transfer subtracted from the primary root length after 6 days of treatment.
(§1) Rhizobacterial biomass for root inoculation experiments is generated by cultivating individual isolates at 30° C. in LB supplemented with 1% (w/v) dextrose, shaking at 200 RPM. Overnight cultures are diluted to an OD600 of 0.1 in fresh media then grown under the same conditions to an OD600 of 0.7. Pellets are centrifuged (2000 r.c.f.) for 10 min at room temperature, then resuspended in 1/10 volume sterile water. Plants are inoculated by momentarily submerging their roots into cell resuspensions, or in sterile water for mock-inoculated controls. Plants are transferred to fresh ½ MS agar plates immediately post-inoculation and grown as before.
(§2) D-limonene, α-pinene, protocatechuate, p-coumarate, [C2C1im][OAc], or [Ch][Lys] are dissolved in molten ½ MS media where indicated. 1.2 M stock solutions of p-coumarate and 1.5 M stock solutions of protocatechuate are prepared in dimethylsulfoxide (DMSO) and ethanol, respectively, before their addition to growth media.
(§3) Plants are lit from the sides and photographed using a Canon 550D camera; images are saved as JPEG files for further analysis. The contrast is adjusted to maximize root visibility, but any adjustments are applied uniformly. Root growth is quantified using ImageJ (Schneider, Rasband, and Eliceiri 2012) with the SmartRoot plugin using default parameters (Lobet, Pages, and Draye 2011).

A. rhizogenes = experiment: Microbial growth in liquid culture (A. rhizogenes); format: cell-based; details: for microbial growth with the compound as sole carbon source: M9 minimal media
Protocol: (§4) Whether inoculation with rhizobacteria alters the effect of the test compounds on plant growth is next tested. Two microbes, A. rhizogenes and Acinetobacter sp.
Whether either [Ch][Lys] or [C2C1im][OAc] has an effect on A. rhizogenes is tested by growing a liquid culture in minimal media (M9, which contains only salts and nitrogen) supplemented with either 0.1 mM [Ch][Lys], 1 mM [C2C1im][OAc], or 1% w/v dextrose as the sole carbon source is tested.
Choline, for instance, can be used as a precursor to the compatible solute glycine betaine in a process dependent on two genes, betA and betB, both of which are present in the A. rhizogenes genome (Levy et al. 2018). Glycine betaine is additionally known to improve the salt tolerance of both plants and microbes (Riou and Le Rudulier 1990; Hayashi et al. 1997). Therefore, whether [Ch][Lys] improves the salt tolerance of A. rhizogenes by growing the microbe in M9 supplemented with 1% w/v dextrose and either 0.1 mM [Ch][Lys], 400 mM NaCl, or both, is tested.
(§5) Microbial strains are maintained in glycerol stocks stored at −80° C. Media used are Lysogeny broth (LB: 10 g/L tryptone, 5 g/L yeast extract, and 5 g/L NaCl) or M9 minimal media (M9: 6.8 g/L Na2HPO4, 3 g/L KH2PO4, 1 g/L NH4Cl, 0.5 g/L NaCl, 0.12 g/L MgSO4) as indicated. Liquid pre-cultures are inoculated with colonies from LB agar plates and grown overnight at 30° C., shaking at 200 RPM. Precultures are back-diluted to an OD600 0.1 into fresh media and grown until OD600 0.6, and then 2 μL per well is used to inoculate 96 well microtiter plates in a total volume of 100 μL of the media and treatment conditions indicated. Optical density is tracked at a wavelength of 600 nm using a Synergy 4 plate reader (BioTek Instruments) kept at 30° C. and shaking on “high” setting.

Acinetobacter sp. 01 = experiment: Microbial growth in liquid culture (Acinetobacter sp. 01); format: cell-based
Protocol: as §4, §5

[1] = test system: mammals, fish, and microbes; details: reported (Sun et al. 2014); cited from earlier work
Sorghum bicolor = experiment: Sorghum seedling root growth on vertical agar plates; format: in vivo; details: for effect on seedlings transferred to solid media: similar results as Arabidopsis; for mean crown root growth / mean lateral root growth: 5 mM [Ch][Lys], 8 days
Description: Arabidopsis is useful as a model system because of its fast generation time, ease of handling, and the availability of relevant genetic tools. The effects of these treatments on a second plant species of economic relevance are compared. Sorghum is selected, since it is both evolutionarily distant from Arabidopsis, but also an agronomically important plant for food, forage, and biomass, and is cultivated over 3,300,000 ha in the United States and 40,000,000 ha globally (Langholtz, Stokes B. J., and Eaton 2016).
Sorghum cultivar BTx623 seeds are a kind gift from Dr. Jeff Dahlberg, UCANR. Seeds are surface sterilized by rinsing 5 times in sterile water, briefly washing in 70% (v/v) ethanol+0.01% (v/v) Triton-X 100 and incubating in bleach+0.01% (v/v) Triton-X 100 on a shaker for 20 minutes. They are then rinsed in sterile water a further 3 times, sown on plates, and grown as above (although without stratification).
as §1, §2, §3

Arabidopsis roots = details: 0.1 mM
Protocol: FIG. 4G. […] Representative fluorescent microscopy images of Arabidopsis roots following propidium iodide staining. I: Control; II: 0.1 mM [Ch][Lys]; III: inoculation with A. rhizogenes; IV: 0.1 mM [Ch][Lys] and A. rhizogenes. The scale bar=200 μm.
Seedlings are inoculated or chemically treated as previously described. After the treatment period roots are gently washed in sterile water and the cell walls are stained for 1 min in […] propidium iodide (PI, Sigma), then briefly rinsed in sterile water. Cellular morphology is determined using a Zeiss LSM 710 confocal microscope with PI fluorescence emission at 550-680 nm and 488 nm excitation.

[2] = 1 mM protocatechuate, inoculated with A. rhizogenes
[3] = 1 mM protocatechuate, uninoculated
[4] = 0.1 mM [Ch][Lys], inoculated with A. rhizogenes, 6 days
[5] = 0.1 mM [Ch][Lys], uninoculated, 6 days

For `C=C(C)C1CC=C(C)CC1` [D-limonene], the “plants showing complete inhibition of primary root growth” value (Arabidopsis thaliana; regardless of the concentration tested) was “at least 20%”, the lateral root growth (Arabidopsis thaliana; uninoculated, 6 days) was “unaffected” and the “changes in root architecture / dose-response” value (Arabidopsis thaliana; uninoculated, between and within plates) was “inconsistent changes in root architecture; also recorded: no dose-response relationship was obvious”.

With `[Cl-].[Na+]` [NaCl, reference compound] the “A. rhizogenes growth rate” value (A. rhizogenes; M9 + 1% w/v dextrose, 400 mM NaCl) was “reduces the A. rhizogenes growth rate”.

With `CCn1cc[n+](C)c1` [[C2C1im][OAc], 1-ethyl-3-methylimidazolium acetate] the “lateral root initiation, effect of inoculation” value (Arabidopsis thaliana; 1 mM [C2C1im][OAc], inoculated with A. rhizogenes) was “no effect”, the “mean primary root growth” value (Arabidopsis thaliana; 1 mM [C2C1im][OAc], inoculated with A. rhizogenes, 6 days) was 2.912 cm and the “mean primary root growth” value (Arabidopsis thaliana; 1 mM [C2C1im][OAc], inoculated with Acinetobacter sp. 01, 6 days) was 4.011 cm. For the same compound, the “mean primary root growth” value (Arabidopsis thaliana; 1 mM [C2C1im][OAc], uninoculated, 6 days) was 1.904 cm, the root growth (Arabidopsis thaliana; 1 mM, uninoculated) was “overall reduction in root growth” and the “lateral root initiation (effect of treatment)” value (Arabidopsis thaliana; uninoculated) was “dose dependent reduction”. For the same compound, the “primary root growth (effect of treatment)” value (Arabidopsis thaliana; uninoculated) was “dose dependent reduction”, the “effect on growth of the microbe” value (Acinetobacter sp. 01; 1 mM) was “does not alter the growth” and the “effect on growth of the microbe” value (A. rhizogenes; 1 mM) was “does not alter the growth”. For the same compound, the “microbial growth with the compound as sole carbon source” value (A. rhizogenes; 1 mM [C2C1im][OAc]) was “Neither IL allows microbial growth”.

For `O=C(O)/C=C/c1ccc(O)cc1` [p-coumarate], the “lateral root initiation (effect of treatment)” value (Arabidopsis thaliana; uninoculated) was “dose dependent reduction” and the “primary root growth (effect of treatment)” value (Arabidopsis thaliana; uninoculated) was “dose dependent reduction”.

In the case of `O=C(O)c1ccc(O)c(O)c1` [protocatechuate], the “primary root curvature, median skew to the right from that of untreated plants” value (Arabidopsis thaliana; 1 mM) is reported as 200, the “mean lateral root number (lateral root initiation)” value (shortened to “mean lateral root number”) (Arabidopsis thaliana; [2]) is reported as 2.214 and the “mean primary root growth” value (Arabidopsis thaliana; [2]) is reported as 0.631 cm. For the same compound, the “mean lateral root number” value (Arabidopsis thaliana; [3]) was 7.989, the “mean primary root growth” value (Arabidopsis thaliana; [3]) was 2.293 cm and the lateral root initiation (Arabidopsis thaliana; 1 mM, uninoculated, 6 days) was “increase lateral root initiation”. The lateral root growth (Arabidopsis thaliana; uninoculated, 6 days) was “enhanced” and the “primary root growth (effect of treatment)” value (Arabidopsis thaliana; uninoculated) was “reduce primary root growth at all concentrations tested”.

With `CC1=CCC2CC1C2(C)C` (stereo not drawn) [α-pinene] the “lateral root initiation (effect of treatment)” value (Arabidopsis thaliana; uninoculated) was “dose dependent reduction” and the “primary root growth (effect of treatment)” value (Arabidopsis thaliana; uninoculated) was “dose dependent reduction”.

In the case of cholinium lysinate [[Ch][Lys]], the “effect on seedlings transferred to solid media” value (shortened to “effect on seedlings transferred”) (Arabidopsis thaliana; 0.1 mM) is reported as “reduced root growth”, the “mean lateral root number” value (Arabidopsis thaliana; [4]) is reported as 4.889 and the “mean primary root growth” value (Arabidopsis thaliana; [4]) is reported as 2.241 cm. For the same compound, the “root growth versus uninoculated, [Ch][Lys]-treated controls” value (Arabidopsis thaliana; 0.1 mM [Ch][Lys], inoculated with Pool A) was “do not differ significantly”, the “mean primary root growth” value (Arabidopsis thaliana; 0.1 mM [Ch][Lys], inoculated with Pool B) was 2.072 cm and the “mean lateral root number” value (Arabidopsis thaliana; [5]) was 7.069. For the same compound, the “mean primary root growth” value (Arabidopsis thaliana; [5]) was 0.858 cm, the primary root growth (Arabidopsis thaliana; 0.1 mM, uninoculated) was “significantly inhibit” and the lateral root initiation (Arabidopsis thaliana; 0.1 mM, uninoculated, 6 days) was “increase lateral root initiation”. The “effect on seedlings transferred” value (Arabidopsis thaliana; 5 mM) was “complete chlorosis and plant death”, the “concentration that reduces the root growth” value (Arabidopsis thaliana; A. thaliana) was “At least 0.1 mM” and the “concentration sufficient to completely inhibit primary root growth” value (Arabidopsis thaliana; Arabidopsis) was 0.1 mM. For the same compound, the “root growth, effect of inoculation” value (Arabidopsis thaliana; [Ch][Lys] treatment, inoculated with Acinetobacter sp. 01) was “no significant effect”, the “application rate equivalent to the concentration that inhibits primary root growth” value (Arabidopsis thaliana; equates to 0.1 mM) was 104 g/ha2 and the “estimated appropriate application rate as herbicide” value (Arabidopsis thaliana; estimate) was 100-500 g/ha. The “primary root growth (effect of treatment)” value (Arabidopsis thaliana; uninoculated) was “reduce primary root growth at all concentrations tested”, the “concentration tolerated by the microbe” value (Acinetobacter sp. 01; Acinetobacter sp. 01) was 10 mM and the “toxicity to mammals, fish, and microbes” value [1] was “low toxicity”. The “effect on seedlings transferred” value (Sorghum bicolor; 0.1 mM) was “reduced root growth”, the “mean crown root growth” value (Sorghum bicolor; inoculated with A. rhizogenes) was 5.028 cm and the “mean lateral root growth” value (Sorghum bicolor; inoculated with A. rhizogenes) was 1.051 cm. The “mean crown root growth” value (Sorghum bicolor; uninoculated) was 3.267 cm, the “mean lateral root growth” value (Sorghum bicolor; uninoculated) was 0.464 cm and the “branching lateral roots and crown root growth” value (Sorghum bicolor; 5 mM, over 8 days) was “almost completely inhibit”. The “effect on seedlings transferred” value (Sorghum bicolor; 5 mM) was “complete chlorosis and plant death”, the “concentration that reduces the root growth” value (Sorghum bicolor; S. bicolor) was “At least 5 mM” and the “root cell morphology phenotype caused by [Ch][Lys]” value (Arabidopsis roots; A. rhizogenes treated roots) was “abolished”. The root cell morphology (Arabidopsis roots; uninoculated) was “irregular expansion of epidermal cells of the root apical meristem (RAM) and stimulates formation of ectopic root hairs”, the “concentration tolerated by the microbe” value (A. rhizogenes; A. rhizogenes) was 10 mM and the “A. rhizogenes growth rate under NaCl” value (A. rhizogenes; M9 + 1% w/v dextrose, 400 mM NaCl plus 0.1 mM [Ch][Lys]) was “partially rescued”. The “microbial growth with the compound as sole carbon source” value (A. rhizogenes; 0.1 mM [Ch][Lys]) was “Neither IL allows microbial growth”.
